Converted amounts (≈) assume the structure as drawn.
Assays:
[1] = system: HFF (human foreskin fibroblast) cells; assay: Cytotoxicity in human primary cell cultures (Trypan Blue Staining); type: cell-based; settings: HFF cells, 48 hours, Trypan Blue Staining
Description: (1) HFF (human foreskin fibroblast) cells (2×105) were seeded with 2 ml of DMEM medium supplemented with 10% FBS in each well of two 12-well tissue culture plates. (2) Cells were cultured for 3 days. CSA-44 was added to test for cell toxicity. Eleven concentrations were tested: 40 μg/ml, 30 μg/ml, […], 17.5 μg/ml, 15 μg/ml, 12.5 μg/ml, 10 μg/ml, 7.5 μg/ml, 5 μg/ml, 2.5 μg/ml, and 1 μg/ml. Samples with concentration of 0 μg/ml were used as the control. Each concentration was tested in duplicates with two wells. (3) Cells were cultured for 48 hours with CSA-44. Trypan Blue Staining was used to determine the numbers of living and dead cells on a hemocytometer. Percentages of living and dead cells in each sample were calculated.
(1) HFF cells (2×105) were seeded with 2 ml of DMEM medium supplemented with 10% FBS in each well of two 12-well tissue culture plates. (2) Cells were cultured for 3 days. CMA Conjugate was added to test for cell toxicity. Eleven concentrations were tested. They were 100 μg/ml, 80 μg/ml, 60 μg/ml, 50 μg/ml, 40 μg/ml, 30 μg/ml, 25 μg/ml, 20 μg/ml, 15 μg/ml, 10 μg/ml, and 5 μg/ml. Samples with concentration of 0 μg/ml were used as the control. Each concentration was tested in duplicates with two wells. (3) Cells were cultured for 48 hours with CMA Conjugate. […] Percentages of living and dead cells in each sample were calculated.

[2] = system: human coronavirus 229E; assay: Therapeutic activity against human coronavirus 229E in HFF cells; type: cell-based; settings: added 24 hours post infection, cell viability
Description: (1) HFF cells (5×104) were seeded with 1 ml of DMEM media supplemented with 10% FBS in each well of four 24-well tissue culture plates. (2) Cell were cultured for 3 days until HFF cells in each well attained 90% confluency (media was changed 1 day before infection). 10 μl of the 10-time diluted original solution of coronavirus, about 1×10^5 PFU were added into each well. Infection was allowed to proceed overnight. (3) The media was changed 24 hours post infection. CSA-44 was added to test their anti-viral effects. Ten different concentrations of the drug were tested. They were 15 μg/ml, 10 μg/ml, 9 μg/ml, 8 μg/ml, 7 μg/ml, 6 μg/ml, 5 μg/ml, 4 μg/ml, 3 μg/ml, and 2 μg/ml with 0 μg/ml as the control. Each concentration has 12 wells for test. Cells were cultured for two weeks, and cell viability was quantified. CSA-44 was effective in inhibiting viral replication and growth. The values of EC50 (where EC is the concentration of the active that gives 50% of the maximal response) of CSA-44 is identified as 4 μg/ml.
(1) HFF cells (5×104) were seeded with 1 ml of DMEM media supplemented with 10% FBS in each well of four 24-well tissue culture plates. (2) Cells were cultured for 3 days until HFF cells in each well attained 90% confluency (media was changed 1 day before infection). Ten μl of the 10-time diluted original solution of coronavirus, about 1×10^5 PFU, were added into each well. Infection was allowed to proceed overnight. (3) The media was changed 24 hours post infection. Different concentrations of CSA-44 were added to test their anti-viral effects. Each concentration has 12 wells for test. Cells were cultured in the presence of CSA-44 for […] and cell viability was quantified.
(1) HFF cells (5×104) were seeded with 1 ml of DMEM media supplemented with 10% FBS in each well of four 24-well tissue culture plates. (2) Cells were cultured for 3 days until HFF cells in each well attained 90% confluency (media was changed 1 day before infection). […] Cells were cultured for two weeks, and cell viability was quantified. […]

CCCCCCCCOC(=O)CC[C@@H](C)[C@H]1CC[C@H]2[C@@H]3[C@H](OC(=O)CCN)C[C@@H]4C[C@H](OC(=O)CCN)CC[C@]4(C)[C@H]3C[C@H](OC(=O)CCN)[C@]12C [CSA-44]
CC50 [1]: around 15 μg/ml
EC50 ([2]; cells cultured for three weeks): ~4 µg/mL (≈ 5.45 µM)
EC50 ([2]; cells cultured for two weeks): 4 µg/mL (≈ 5.45 µM)

— patent US20240335547A1, “MODIFIED CHOLIC ACID CONJUGATES” (priority 2022, published 2024)
